Measured values published in patent US7989630B2, “Radiotracers for imaging P-glycoprotein function” (National Institutes of Health Represented by the Secretary …, priority 2008, dated 2011).
Where a name gives a salt, the structure may show the parent alone. One block for each compound: values may come before it.

How the values were obtained:
P-gp [1] = assay: PET imaging of [^11C]loperamide in monkey brain with P-gp inhibitors; settings: for increase of brain activity after [^11C]loperamide: monkey; for increase of peak radioactivity in brain after [^11C]loperamide: inhibitor 8.0 mg/kg i.v. 30 min before radiotracer, monkey (FIG. 3)
Protocol: (§1) For tariquidar only a blockade scan was acquired and compared to the baseline scans of three other animals.
PET images were co-registered to a magnetic resonance image template of a monkey brain. Tomographic images were analyzed with PMOD 2.7 (pixel-wise modeling computer software; PMOD Group, Adliswil, Switzerland). Regions of interest were drawn on coronal slices. Decay-corrected radioactivity was expressed as % standardized uptake value (% SUV), which normalizes for injected activity and body weight. % SUV=(% injected activity per cm3 brain)×(g body weight).

P-gp [2] = settings: DCPQ 16 mg/kg i.v., monkeys
Protocol: The brains of three P-gp KO and three WT mice were scanned for 90 min after administration of [^11C]dLop (˜580 μCi, i.v.). Mice injected with [^11C]dLop (600 μCi, i.v.) were also sacrificed at 30 min, and acetonitrile extracts of blood and brain analyzed with reverse phase HPLC.

P-gp [3] = assay: PET imaging of [^11C]dLop in monkey brain, baseline and P-gp blocked with DCPQ; settings: for increase of regional radioactivity concentration relative to baseline: DCPQ 16 mg/kg i.v. before [^11C]dLop, averaged 25-50 min
Protocol: Scatter and attenuation correction were applied. Images were analyzed with PMOD. Regions of interest were drawn on coronal slices for eight brain regions (frontal cortex, anterior cingulate, temporal cortex, parietal cortex, hippocampus, occipital cortex, putamen and cerebellum). Activity was decay-corrected to the time of injection and expressed as % SUV. […]
Time-radioactivity data were collected for the same eight brain regions as previously described.

P-gp [4] = settings: Ekins et al. 2002 (DCPQ); Martin et al. 1999 (tariquidar); cited from earlier work
[5] = Plasma free fraction (fP) by ultracentrifugation; format: in vitro ADME; settings: fP of [^11C]loperamide, monkey
[6] = Plasma analysis of [^11C]loperamide in nonhuman primates (arterial plasma, radio-HPLC); settings: for time at which parent radiotracer was 50% of total plasma activity: monkey arterial plasma
Text: as §1

[7] = Arterial plasma parent input function and plasma free fraction, [^11C]loperamide with tariquidar; format: in vivo; settings: monkey
Protocol: Arterial plasma parent input function and plasma free fraction (fl) were determined in monkey.

P-gp [8] = assay: Monkey brain PET with [^11C]loperamide, baseline and tariquidar (additional experiments)
P-gp [9] = settings: iv, 8 mg/kg
P-gp [10] = assay: P-gp function imaged with [^11C]dLop in monkeys, brain study; format: in vivo; settings: naloxone 5 mg/kg or loperamide 1 mg/kg at 30 min after [^11C]dLop, P-gp blocked monkeys
Protocol: Displacement agents were given at 30 min after the radiotracer. A subset of monkeys also had arterial blood sampling (n=5) and [^15O]H2O PET scans (n=4) to measure the concentration of parent radiotracer in plasma and cerebral blood flow, respectively.

P-gp [11] = settings: KO mice, 30 min after [^11C]loperamide i.v.
Text: (§2) The most lipophilic radiometabolite was identified by radio-HPLC co-elution as N-desmethylloperamide (dLop) (data not shown).

CYP3A4 = settings: mouse, in vivo
Protocol: Ex vivo studies were performed in wild-type (WT) and P-gp knockout (KO) mice. […] Whole brain and plasma sample radioactivity were measured with γ-counting and HPLC analysis.

μ opiate receptor = μ opiate receptor (Homo sapiens, UniProt P35372); format: binding
Text: (§3) Detailed binding protocols are available on the web site for The National Institute of Mental Health Psychoactive Drug Screening Program.

δ opiate receptor = δ opiate receptor (Homo sapiens, UniProt P41143); assay: In vitro receptor binding, cloned human δ opiate receptor
Text: as §3

P-gp [12] = biological target: P-gp (Mus musculus, UniProt P21447); settings: 30 min after [^11C]loperamide i.v.
Text: as §2

κ opiate receptor = κ opiate receptor (Homo sapiens, UniProt P41145); assay: biochemical; settings: agonist radiotracer ^3H-U69,593; mean ± SD of four competitive binding experiments
Text: as §3

P-gp [13] = settings: P-gp knockout mice, 30 min after injection of [^11C]loperamide
Protocol: At 30 min after radiotracer injection, anticoagulated blood was removed by cardiac puncture, and the brain was harvested. Plasma was separated from whole blood by centrifugation at 1,800 g for 1 min. […] The homogenates were measured in the y-counter to calculate the % recovery of radioactivity into the acetonitrile extracts. The homogenates were then centrifuged at 10,000×g for 1 min. […] The eluate was monitored with an in-line flow-through Na(Tl) scintillation detector (Bioscan, Washington D.C., USA). Plasma parent and radiometabolite concentrations were calculated as the product of the radio-HPLC fraction of interest and the total plasma radioactivity concentration (dpm/mL).

P-gp [14] = system: P-gp
Protocol: Serial dynamic images were acquired for 100 min, with frames of 6×20 s, 5×1 min, 4×2 min, 3×5 min, 3×10 min, and 2×20 min. […] The small mouse brain causes little scatter and attenuation of the gamma emissions from carbon-11, and, thus, no correction for scatter or attenuation was performed.

[15] = inhibitor 8 mg/kg i.v. 30 min before radiotracer

Chain of P-gp (Mus musculus, UniProt P21447) (P21447 whole entry): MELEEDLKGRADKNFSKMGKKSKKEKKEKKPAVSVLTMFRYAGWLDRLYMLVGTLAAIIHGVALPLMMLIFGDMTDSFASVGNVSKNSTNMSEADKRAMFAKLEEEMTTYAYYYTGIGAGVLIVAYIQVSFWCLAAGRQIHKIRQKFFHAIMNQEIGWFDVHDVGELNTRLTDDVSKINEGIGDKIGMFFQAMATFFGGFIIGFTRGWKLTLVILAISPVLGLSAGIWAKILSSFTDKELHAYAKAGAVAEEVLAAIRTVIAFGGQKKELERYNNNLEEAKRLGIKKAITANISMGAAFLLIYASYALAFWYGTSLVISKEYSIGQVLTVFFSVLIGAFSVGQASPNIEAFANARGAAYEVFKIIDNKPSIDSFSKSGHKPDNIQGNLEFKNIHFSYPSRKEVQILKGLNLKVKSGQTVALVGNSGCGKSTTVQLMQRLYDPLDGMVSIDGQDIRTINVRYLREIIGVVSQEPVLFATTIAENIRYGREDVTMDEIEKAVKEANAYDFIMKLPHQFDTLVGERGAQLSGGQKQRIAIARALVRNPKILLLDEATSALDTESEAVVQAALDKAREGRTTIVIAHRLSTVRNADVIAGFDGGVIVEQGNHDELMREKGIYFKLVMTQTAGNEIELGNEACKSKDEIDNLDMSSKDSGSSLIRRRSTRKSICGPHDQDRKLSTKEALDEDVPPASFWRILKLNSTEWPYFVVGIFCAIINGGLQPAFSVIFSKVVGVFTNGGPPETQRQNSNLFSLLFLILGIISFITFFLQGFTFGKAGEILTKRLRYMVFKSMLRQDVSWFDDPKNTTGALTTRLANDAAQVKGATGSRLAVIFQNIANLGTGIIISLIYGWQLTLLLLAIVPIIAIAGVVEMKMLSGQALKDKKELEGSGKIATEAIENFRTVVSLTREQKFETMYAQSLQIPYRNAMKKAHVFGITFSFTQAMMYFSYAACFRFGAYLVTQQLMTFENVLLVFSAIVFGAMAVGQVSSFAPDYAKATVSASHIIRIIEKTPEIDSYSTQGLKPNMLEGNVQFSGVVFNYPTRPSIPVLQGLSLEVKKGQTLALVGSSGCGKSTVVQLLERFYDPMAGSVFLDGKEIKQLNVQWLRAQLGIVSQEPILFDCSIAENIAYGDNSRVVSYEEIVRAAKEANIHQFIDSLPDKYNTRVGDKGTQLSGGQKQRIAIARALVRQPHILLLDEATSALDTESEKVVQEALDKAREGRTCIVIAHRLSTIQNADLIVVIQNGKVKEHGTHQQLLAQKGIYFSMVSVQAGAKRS
Chain of κ opiate receptor (P41145 whole entry): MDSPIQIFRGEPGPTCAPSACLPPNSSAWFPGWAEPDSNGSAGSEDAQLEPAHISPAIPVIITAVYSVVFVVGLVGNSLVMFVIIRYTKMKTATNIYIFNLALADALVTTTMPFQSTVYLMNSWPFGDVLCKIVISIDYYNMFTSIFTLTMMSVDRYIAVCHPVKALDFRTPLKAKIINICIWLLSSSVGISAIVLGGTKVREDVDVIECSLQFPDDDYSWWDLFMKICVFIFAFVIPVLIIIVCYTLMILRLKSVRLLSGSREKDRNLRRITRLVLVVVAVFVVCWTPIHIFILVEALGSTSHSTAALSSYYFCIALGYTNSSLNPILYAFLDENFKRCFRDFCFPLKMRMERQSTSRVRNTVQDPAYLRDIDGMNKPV
Chain of μ opiate receptor (P35372 whole entry): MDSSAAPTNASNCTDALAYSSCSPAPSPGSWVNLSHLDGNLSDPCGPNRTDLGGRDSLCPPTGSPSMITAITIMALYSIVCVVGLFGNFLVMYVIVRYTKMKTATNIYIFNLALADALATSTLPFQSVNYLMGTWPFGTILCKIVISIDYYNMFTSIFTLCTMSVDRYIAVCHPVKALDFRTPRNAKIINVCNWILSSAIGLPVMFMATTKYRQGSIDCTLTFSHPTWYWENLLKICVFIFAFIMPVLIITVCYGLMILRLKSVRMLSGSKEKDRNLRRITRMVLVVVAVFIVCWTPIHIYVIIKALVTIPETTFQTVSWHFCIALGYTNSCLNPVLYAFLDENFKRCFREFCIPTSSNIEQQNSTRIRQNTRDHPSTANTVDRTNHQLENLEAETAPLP
Chain of δ opiate receptor (P41143 whole entry): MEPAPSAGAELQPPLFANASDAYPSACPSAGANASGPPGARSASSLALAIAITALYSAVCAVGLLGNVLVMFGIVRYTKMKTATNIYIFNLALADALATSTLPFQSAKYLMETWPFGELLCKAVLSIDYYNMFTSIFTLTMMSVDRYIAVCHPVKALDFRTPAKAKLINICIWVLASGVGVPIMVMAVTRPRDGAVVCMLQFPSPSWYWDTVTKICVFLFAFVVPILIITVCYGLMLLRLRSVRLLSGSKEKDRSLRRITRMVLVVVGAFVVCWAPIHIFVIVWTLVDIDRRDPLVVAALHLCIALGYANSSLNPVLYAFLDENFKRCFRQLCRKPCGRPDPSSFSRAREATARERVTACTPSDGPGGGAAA

SMILES: Cl.Cl.Cl.O[C@@H](COc1cccc2ncccc12)CN1CCN(C2c3ccccc3C3C(c4ccccc42)C3(Cl)Cl)CC1 (stereo partly drawn) [DCPQ, (2R)-anti-5-{3-[4-(10,11-dichloromethanodibenzosuber-5-yl)piperazin-1-yl]-2-hydroxypropoxy}quinoline trihydrochloride]
increase of brain activity after [^11C]loperamide (P-gp [1]; inhibitor 1 mg/kg i.v. 30 min before radiotracer): minimal effect
increase of brain activity after [^11C]loperamide (P-gp [1]; inhibitor 3 mg/kg i.v. 30 min before radiotracer): ~2.5 fold
increase of brain activity after [^11C]loperamide (P-gp [1]; [15]): ~3.5 fold
increase of peak radioactivity in brain after [^11C]loperamide (P-gp [1]): 3.7 fold
increase of brain radioactivity after [^11C]dLop (P-gp [2]): more than 7 fold
dependence of regional brain radioactivity uptake on dose (P-gp [3]; DCPQ 0-16 mg/kg i.v. before [^11C]dLop, one monkey): increased almost linearly with dose of DCPQ
ratio of maximal brain radioactivity to that in the baseline experiment (P-gp [3]; DCPQ 8 mg/kg i.v. before [^11C]dLop, monkey): about five
effect on uptake of radioactivity into pituitary (P-gp [3]; DCPQ 8 mg/kg or 16 mg/kg i.v. before [^11C]dLop, monkey): unaffected
increase of regional radioactivity concentration relative to baseline (P-gp [3]; cerebellum, monkey): thirteen-fold
increase of regional radioactivity concentration relative to baseline (P-gp [3]; frontal cortex, monkey): seven-fold
affinity to the P-gp (P-gp [4]): 5.3 nM
Plasma free fraction (fP), P-gp Inhibition ([5]; inhibitor 1.0 mg/kg): 5.7 ± 0.3
Plasma free fraction (fP), P-gp Inhibition ([5]; inhibitor 3.0 mg/kg): 1.4 ± 0.5
Plasma free fraction (fP), P-gp Inhibition ([5]; inhibitor 8.0 mg/kg): 4.4 ± 1.4
increase in plasma exposure of [^11C]loperamide ([6]; DCPQ 8 mg/kg i.v. vs baseline, monkey): 16%

time over which parent plasma composition decreased to 50% ([7]; rhesus, in vivo): 20 min
Plasma free fraction (fP), Δ relative to baseline ([5]; inhibitor 8.0 mg/kg): negligibly affected
SMILES: COc1cc2c(cc1OC)CN(CCc1ccc(NC(=O)c3cc(OC)c(OC)cc3NC(=O)c3cnc4ccccc4c3)cc1)CC2 [Tariquidar]
increase of brain activity after [^11C]loperamide (P-gp [1]; [15]): equipotent with DCPQ
increase of peak radioactivity in brain after [^11C]loperamide (P-gp [1]): 3.7 fold
increase of brain activity after [^11C]loperamide (P-gp [1]; inhibitor 8 mg/kg i.v. 30 min before radiotracer, listed as tariquidar): ~3.5 fold
increase of brain activity after [^11C]loperamide (P-gp [8]; tariquidar 8 mg/kg i.v.): about 3.7 fold
brain activity after P-gp inhibition (P-gp [9]): 146 % standard uptake value
affinity to the P-gp (P-gp [4]): 5.1 nM

SMILES: C=CCN1CC[C@]23c4c5ccc(O)c4O[C@H]2C(=O)CC[C@@]3(O)[C@H]1C5 [naloxone, reference compound]
displacement of the radiotracer from brain (P-gp [10]): Neither naloxone nor loperamide caused any apparent displacement

SMILES: CN(C)C(=O)C(CCN1CCC(O)(c2ccc(Cl)cc2)CC1)(c1ccccc1)c1ccccc1 [Loperamide, 4-(p-chlorophenyl)-4-hydroxy-N,N-dimethyl-α,α-diphenyl-1-piperidinebutyramide hydrochloride, reference compound]
displacement of the radiotracer from brain (P-gp [10]): Neither naloxone nor loperamide caused any apparent displacement
Brain composition (P-gp [11]): 63%

SMILES: CC(=O)N1CCN(c2ccc(OCC3COC(Cn4ccnc4)(c4ccc(Cl)cc4Cl)O3)cc2)CC1 (stereo not shown) [ketoconazole]
decrease of radiometabolite dLop in plasma (CYP3A4): ~70%
increase of [^11C]dLop concentration in plasma (CYP3A4): ~240%
increase of [^11C]loperamide concentration in plasma (CYP3A4): ~100%

SMILES: CNC(=O)C(CCN1CCC(O)(c2ccc(Cl)cc2)CC1)(c1ccccc1)c1ccccc1 [dLop, 4-(4-(4-Chlorophenyl)-4-hydroxypiperidin-1-yl)-2,2-diphenyl-N-methyl-butanamide]
Ki (μ opiate receptor): 0.56 ± 0.05 nM
Ki (δ opiate receptor): 328 ± 22 nM
effect on washout of radioactivity from brain regions (P-gp [3]; given 30 min after [^11C]dLop to DCPQ-treated monkey (naloxone 5 mg/kg i.v.; loperamide or dLop 1 mg/kg i.v.)): no discernible effect
Brain composition (P-gp [11]): 21%
Brain composition (P-gp [12]; WT mice): 4.3%
concentration increase over control (KO vs WT) (P-gp [12]; brain): 59 fold
Ki (κ opiate receptor): 73 ± 7 nM

SMILES: CN([11CH3])C(=O)C(CCN1CCC(O)(c2ccc(Cl)cc2)CC1)(c1ccccc1)c1ccccc1 [[^11C]loperamide, 4-(4-(4-chlorophenyl)-4-hydroxypiperidin-1-yl)-N,N-dimethyl-2,2-diphenylbutanamide]
brain uptake under baseline conditions (P-gp [1]; three monkeys, 120 min scan): ~40 % SUV
time over which parent plasma composition decreased to 50% ([7]; baseline): 17 min
share of brain radioactivity after [^11C]loperamide (P-gp [13]): ~50%
brain activity, baseline (P-gp [8]; baseline): 40 % standard uptake value
maximal activity in cerebellum, knockout vs wild type mice (PET) (P-gp [14]; cerebellum): 1.9 fold
maximal activity in forebrain, knockout vs wild type mice (PET) (P-gp [14]; forebrain): 2.7 fold
brain activity, knockout vs wild type mice (PET) (P-gp [14]; whole brains): about three-fold
time at which parent radiotracer was 50% of total plasma activity ([6]; after DCPQ 8 mg/kg i.v.): 20 min
time at which parent radiotracer was 50% of total plasma activity ([6]; baseline): 17 min
time at which parent radiotracer was 50% of total plasma activity ([6]; baseline, listed as [^11C]Loperamide): about 20 min
